{"source": "ChEMBL document CHEMBL3886985", "about": "“Benzothiophene derivative” (2016)", "note": "pIC50: −log10 of the molar value."}
{"biological_target": "T1, cAMP and cAMP-inhibited cGMP 3',5'-cyclic phosphodiesterase 10A (Homo sapiens, UniProt Q9Y233)", "T1 sequence (Q9Y233 whole entry)": "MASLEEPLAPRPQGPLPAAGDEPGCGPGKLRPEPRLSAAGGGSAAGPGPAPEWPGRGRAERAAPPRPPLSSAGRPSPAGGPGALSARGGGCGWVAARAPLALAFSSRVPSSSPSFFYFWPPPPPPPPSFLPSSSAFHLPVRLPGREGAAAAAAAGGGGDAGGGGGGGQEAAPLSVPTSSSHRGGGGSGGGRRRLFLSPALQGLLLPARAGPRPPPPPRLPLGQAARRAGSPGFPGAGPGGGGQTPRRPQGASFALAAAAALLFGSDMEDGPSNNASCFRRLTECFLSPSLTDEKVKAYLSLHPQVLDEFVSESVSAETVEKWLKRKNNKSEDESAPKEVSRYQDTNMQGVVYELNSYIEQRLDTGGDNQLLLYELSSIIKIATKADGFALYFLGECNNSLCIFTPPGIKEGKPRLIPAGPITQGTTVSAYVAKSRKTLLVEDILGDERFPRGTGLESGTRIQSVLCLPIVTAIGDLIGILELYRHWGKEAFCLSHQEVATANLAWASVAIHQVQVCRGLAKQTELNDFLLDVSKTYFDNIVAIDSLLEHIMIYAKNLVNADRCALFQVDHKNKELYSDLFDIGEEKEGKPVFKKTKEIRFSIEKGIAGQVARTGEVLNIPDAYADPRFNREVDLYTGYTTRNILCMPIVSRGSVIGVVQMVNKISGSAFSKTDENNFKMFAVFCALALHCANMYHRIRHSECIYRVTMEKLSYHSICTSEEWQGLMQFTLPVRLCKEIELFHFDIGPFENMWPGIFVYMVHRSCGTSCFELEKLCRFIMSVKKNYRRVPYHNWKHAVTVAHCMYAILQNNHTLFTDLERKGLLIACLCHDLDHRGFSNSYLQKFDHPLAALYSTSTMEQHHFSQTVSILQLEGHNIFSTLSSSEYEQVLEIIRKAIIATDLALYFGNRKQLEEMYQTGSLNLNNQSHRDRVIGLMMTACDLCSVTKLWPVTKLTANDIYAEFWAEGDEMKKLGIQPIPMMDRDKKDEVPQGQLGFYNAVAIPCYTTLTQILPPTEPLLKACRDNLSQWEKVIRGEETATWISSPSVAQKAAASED", "assay": "Activity Assay: A human acute lymphoblastic […] T cell line MOLT-4 (which can be purchased under ATCC No. CRL-1582 from ATCC) was cultured in an RPMI1640 medium containing 10% fetal bovine serum to obtain 5108 MOLT-4 cells. The cells were recovered by centrifugation and suspended in 10 ml of buffer solution A (25 mM Tris-HCl, 5 mM 2-mercaptoethanol, 2 mM benzamidine, 2 mM EDTA, and 0.1 mM 4-(2-aminoethyl)benzenesulfonyl hydrochloride, pH 7.5). The cells were homogenized using a Polytron homogenizer and centrifuged (4° C., 25,000 g, 10 minutes). Then, the supernatant was further ultracentrifuged (4° C., 100,000 g, 60 minutes). The obtained supernatant was filtered through a 0.2um filter to obtain a soluble fraction.HiTrap Q HP column (5 ml2, GE Healthcare Japan Corp.) equilibrated with buffer solution A was charged with the obtained soluble fraction. Phosphodiesterase was eluted with 300 ml of buffer solution A containing a linear gradient solution of 0 to 0.8 M NaCl to recover sixty 5-ml fractions. Each fraction was tested for cAMP-metabolizing phosphodiesterase activity. […] In order to confirm whether or not PDE10A mRNA was expressed in the MOLT-4 cells, total RNA was prepared from the MOLT-4 cells according to a standard method and analyzed by RT-PCR using PDE10A gene-specific primers (PDE10A sense primer: 5'-[…]-3' (SEQ ID NO: 1) and PDE10A antisense primer: 5'-[…]-3' (SEQ ID NO: 2)). As a result, PDE10A mRNA was detected from the total RNA of the MOLT-4 cells. On the other hand, total RNA was prepared from Jurkat cells, one type of human T cell, and similarly subjected to RT-PCR. As a result, PDE10A mRNA was rarely detected. An active peak centered around 250 mM NaCl was not observed in fractions obtained by the treatment of Jurkat cells in the same way as above. Eur J Biochem. 1999, 266 (3), 1118-2 has reported that PDE10A from the rat striatum and testis is eluted as an active peak centered around 250 mM NaCl.", "format": "cell-based"}
{"smiles": "COCc1ccc(C(C)=O)c2sc(C(=O)Nc3ccc4c(CN(C)C)cccc4n3)c(C)c12", "pIC50": 8.74}
{"smiles": "COCc1ccc(C(C)=O)c2sc(C(=O)Nc3ccc4c(COC(=O)CCC(=O)O)cccc4n3)c(C)c12", "pIC50": 9.00}
{"smiles": "COCc1ccc(C(C)=O)c2sc(C(=O)Nc3cc(N(C)C)c4ccccc4n3)c(C)c12", "pIC50": 9.35}
{"smiles": "COCc1ccc(C(C)=O)c2sc(C(=O)Nc3ccc4ccccc4n3)c(C)c12", "pIC50": 8.96}
{"smiles": "COCc1ccc(C(C)=O)c2sc(C(=O)Nc3ccc4c(CN5CCOCC5)cccc4n3)c(C)c12", "pIC50": 8.89}
{"smiles": "COCc1ccc(C(C)=O)c2sc(C(=O)Nc3ccc4c(C(=O)N5CCN(C)CC5)cccc4n3)c(C)c12", "pIC50": 9.51}
{"smiles": "COCc1ccc(C(C)=O)c2sc(C(=O)Nc3ccc4c(CN5CC[C@@H](F)C5)cccc4n3)c(C)c12", "pIC50": 8.92}
{"biological_target": "T1, cAMP and cAMP-inhibited cGMP 3',5'-cyclic phosphodiesterase 10A", "assay": "Activity Assay: Inhibitory activity-1 assay: To a solution containing 20 mM Tris-HCl (pH 7.5), 1 mM MgCl2, 100 μM EDTA, 330 μg/ml bovine serum albumin, 50 kU/ml 5′-nucleotidase, 0.1 μCi 3H-cAMP (64 nM cAMP), and PDE10A (H-PDE10A2, Human Phosphodiesterase 10A2, Scottish Biomedical), a test compound was added, and the mixture was reacted at 25° C. for 2 hours. To the reaction solution, QAE-Sephadex (17-0190-01, GE Healthcare Japan Corp.) suspended in 10 mM HEPES-Na (pH 7.0) (hereinafter, also referred to as a “QAE-Sephadex suspension”) was added, and the mixture was shaken for 1 minute and left standing for 5 minutes to obtain a supernatant. To the supernatant, a QAE-Sephadex suspension was further added, and the mixture was shaken for 1 minute and left standing for 5 minutes. Then, the obtained supernatant was transferred to LumaPlate (PerkinElmer, Inc.) and assayed using a radiation counter (TopCount NXT, PerkinElmer, Inc.)."}
{"smiles": "COCc1ccc(C(C)=O)c2sc(C(=O)Nc3ccc4c(COP(=O)(O)O)cccc4n3)c(C)c12", "pIC50": 9.00}
